Measurements from ChEMBL document CHEMBL1157248, “Polar steroidal compounds from the far eastern starfish Henricia leviuscula” (J Nat Prod, 2006).

Experiments:
Assay type in all cases: cell-based, Erythrocyte; call rule not given here
[1] = Toxicity in mouse erythrocytes assessed as hemolysis at 0.08 mM during 5 mins; conditions: read-out: Activity
[2] = Toxicity in mouse erythrocytes assessed as hemolysis
[3] = Toxicity in mouse erythrocytes assessed as hemolysis at 0.1 mM during 5 mins

| Structure (SMILES) | hemolysis at 5 min, 80 µM [1] | HC50 [2] | hemolysis at 5 min, 100 µM ([3]; mouse erythrocytes, read-out: Activity) | Activity ([3]; erythrocyte, 5 min, 100 µM) |
| --- | --- | --- | --- | --- |
| CO[C@@H]1[C@@H](OC)[C@H](O[C@@H]2C=C3[C@H](O)C[C@@]4(O)[C@@H]5[C@@H](O)[C@H](O)[C@H]([C@H](C)/C=C/C(C)CCO)[C@@]5(C)CC[C@@H]4[C@@]3(C)CC2)OC[C@H]1O (some centres undefined) | 100% | 80 µM |  |  |
| CC(C)[C@@H](O)CC[C@@H](C)[C@H]1C[C@@H](O)[C@@H]2[C@]1(C)CC[C@@H]1[C@@]3(C)CC[C@H](O)[C@H](O)[C@@H]3[C@H](O)C[C@]12O |  | 53 µM | 100% |  |
| C[C@H](CC[C@@H](O)C(C)(C)O)[C@H]1C[C@@H](O)[C@@H]2[C@]1(C)CC[C@@H]1[C@@]3(C)CC[C@H](O)[C@H](O)[C@@H]3[C@H](O)C[C@]12O |  | 210 µM |  | Not Active |
| CO[C@@H]1[C@@H](OC)[C@H](O[C@@H]2C=C3[C@H](O)C[C@@]4(O)[C@@H]5[C@@H](O)[C@H](O)[C@H]([C@H](C)/C=C/[C@@H](C)[C@H](C)CO)[C@@]5(C)CC[C@@H]4[C@@]3(C)CC2)OC[C@H]1O [HENRICIOSIDE H2] | 70% | 120 µM |  |  |
| CO[C@H]1[C@H](O[C@H]2CC[C@@]3(C)[C@H]([C@H]2O)[C@H](O)C[C@]2(O)[C@@H]3CC[C@]3(C)[C@@H]([C@H](C)CC[C@H](O[C@@H]4O[C@@H](CO)[C@H](O)[C@H]4O)C(C)C)C[C@H](O)[C@H]32)OC[C@@H](OC)[C@@H]1O [LAEVIUSCOLOSIDE G] |  | 130 µM |  |  |
